Assay results taken from patent publication EP0016703A1, “Lysine salt of (+/-) 3-amino-4-(1-pyrrolyl)-alpha-methylphenyl-acetic acid, process for its preparation and pharmaceutical composition containing it” (LIPHA, LYONNAISE INDUSTRIELLE PHARMACEUTIQUE, priority 1979, dated 1980).
Read-outs that look alike come from different tables or passages of the source.

How the values were obtained:
oedème à la carragénine = assay: Anti-inflammatory activity, carrageenan oedema test (Winter et al.); format: in vivo; conditions: Administration P.O, dose that inhibits the oedema by 30 %; for ED30: Rattus norvegicus, po, read-out: Oedème à la carra-génine DE.30
Excerpt: C - L'activité anti-inflammatoire a été démontrée par le test de l'oedème à la carragénine, selon WINTER et Col. (Proc. Exp. Biol. Med., 1962, 111, 544. On recherche .la protection que confère le traitement par le pro- duit administré P.O. au rat, vis à vis d'un oedème déclenché par injection sous la voûte plantaire, d'une suspension de carragénine. La dose efficace 30 est celle qui inhibe l'oedème de 30 %.

érythème aux U.V. = assay: Protection against early inflammation, UV erythema method (Winder et al.); format: in vivo; conditions: cobaye albinos, Administration P.O, dose that moderates erythema intensity by 50 %; for ED50: Cavia porcellus, po, read-out: Erythème aux U.V. DE.50
Excerpt: D - L'activité protectrice vis-à-vis de l'inflammation précoce a été mise en évidence sur le cobaye albinos selon la méthode de l'érythème aux U.V. (WINDER et Col., Arch. Int. Pharmacodyn. 1958, 116, 261). La dose efficace 50 est la dose qui.donnée P.O., modère de 50 % l'intensité de l'érythème induit par exposition à un rayonnement U.V. de la surface dorsale épilée des cobayes.

[1] = system: contractions douloureuses; assay: Analgesic activity, acetic acid writhing test (Koster et al.); format: in vivo; conditions: souris, Administration P.O, dose that reduces the number of painful contractions by 50 %
Excerpt: B - L'activité analgésique a été déterminée chez 1a souris par la méthode de KOSTER et Col. (Fed. Proc. 1959, 18, 412). On détermine la dose efficace 50, dose qui administrée P.O. diminue de 50 % le nombre des contractions douloureuses déclenchées par l'injection in- trapéritonéale d'une solution diluée d'acide acétique.

in vivo = conditions: in vivo
Excerpt: (§1) A - La DL 50 a été déterminée chez la souris et le rat par les voies orale et I.V., selon MILLER et TAINTER (Proc. Soc. Exp. Biol. Medecine, 1944, 57, 261.

Solubility in water = format: physicochemical
rat = assay: in vivo
Excerpt: as §1

souris = assay: in vivo; conditions: P.O.
Excerpt: as §1

SMILES | ED30 (oedème à la carragénine) | ED50 (érythème aux U.V.) | Acide acétique DE.50 [1] | LD50 (in vivo; mouse, po, souris, P.O., read-out: DL. 50 souris P.O.) | LD50 (in vivo; rat, po, P.O., read-out: DL. 50 rat P.O.) | solubilité dans l'eau (Solubility in water) | Oedème à la carra-génine DE.30 (oedème à la carragénine; rat) | Erythème aux U.V. DE.50 (érythème aux U.V.) | DL. 50 rat P.O. (rat) | LD50 (in vivo; mouse, iv, souris, I.V., read-out: DL. 50 souris I.V.) | DL. 50 souris P.O. (souris) | ED50 ([1]; Mus musculus, po, read-out: Acide acétique DE.50)
CC(C(=O)O)c1ccc(-n2cccc2)c(N)c1 (racemic) [Composé B, acide (±) amino-3 (pyrrolyl-1') -4α- méthyl phényl acétique] | 12 mg/kg | 4.7 mg/kg | 19 mg/kg | 3000 mg/kg | 392 ± 50 mg/kg |  |  |  |  |  |  | 
CC(C(=O)O)c1ccc(-n2cccc2)c(N)c1 (racemic) [Composé C, sel de (±) lysine de l'acide (±) amino-3 (pyrrolyl-l')-4 α- méthyl phénylacétique] |  |  | 42 mg/kg |  |  | parfaite solubilité dans l'eau | 15 mg/kg | 4,8 mg/kg | 697 ± 103 mg/kg | > 1600 mg/kg | >3200 mg/kg | 
CCCCC1C(=O)N(c2ccccc2)N(c2ccccc2)C1=O [Phénylbuta-zone, butyl-4 diphényl-1,2 pyrazolidine dione-3,5] | 35 mg/kg | 3.7 mg/kg |  |  |  |  |  |  |  |  |  | 93 mg/kg
